Experimental findings from article PMC4241505 (Nature communications, 2014) are described below.

For the data set, the system named is cathepsins B, H, and S. To be noted: pH 5.

Ends that are not written are not given here.

For the compound `CC(C)C[C@H](NC(=O)[C@H](CCCCN)NC(=O)[C@H](CC(C)C)NC(=O)[C@@H](NC(=O)[C@H](CC(N)=O)NC(=O)[C@H](CCC(N)=O)NC(=O)[C@H](CCCCN)NC(=O)[C@@H](NC(=O)[C@H](Cc1ccc(O)cc1)NC(=O)[C@H](CCCCN)NC(=O)[C@@H]1CCCN1)C(C)C)[C@@H](C)O)C(=O)N[C@@H](C)C(=O)N[C@H](C(=O)O)[C@@H](C)O` [HA(306–318)], the “Peptides detected on MALDI after digesting synthetic epitope with cathepsins” value is “PKYVKQNTLK (m/z 1218 Da)”.
Turning to NRERRGIALDGKIKHE [hSA(291–306)], the “Peptides detected on MALDI after digesting synthetic epitope with cathepsins” value is reported as “NRERRGIALDGKIKHE (m/z 1892 Da) NRERRGIALDGKIK (m/z 1627 Da)”.
